{"source": "patent US20040043047A1", "about": "“Cosmetic or dermatological compositions containing at least one substance for increasing the functionality and/or expression of the CD44 membrane receptors of skin cells” (priority 1999, published 2004)", "key": {"[1]": {"system": "human keratinocytes", "details": "for Amount of fluorescence measured compared with calcium chloride at equivalent molarity: 5 and 10 mM; for Fluorescence measured (FU) Mean: Table III", "procedure": "I-Measurement of the Amount of Haluronic Acid Bound to the Surface of Keratinocytes\nThe following steps are performed:\n15,000 human keratinocytes are inoculated in culture wells (96-well plates) in a K-SFM medium (Gibco).\n2—Production of Confluent Cultures:\nIncubation of the cultures for 72 hours at 37° C. under a humidity-saturated atmosphere, with 5% CO2, with renewal of the culture medium after 48 h.\n3—Binding of Hyaluronic Acid:\nIncubation of the cells for 4 hours at 4° C. with hyaluronic acid covalently bonded to a fluorochrome, […] (HA-FA), synthesized in the laboratory according to the technique described in “Preparation and properties of fluoresceine-labelled hyaluronate; carbohydrate research, 1975, Vol. 44, pp. 251-257”, prepared in K-SFM containing 0.2% sodium azide.\n4—Evaluation of the Activity of the Test Products:\nThe products for which it is desired to evaluate the action on the amount of HA-FA bound by keratinocytes are added to the incubation medium at the start of incubation. Controls are carried out in the absence of the products to be evaluated and in the presence of their excipient which was used to dissolve them.\n5—Nonspecific Binding of HA-FA.\nIn order to determine the nonspecific labelling, the same experimental conditions as in step 3 are rigorously used, but with the addition of 200 times more hyaluronic acid not labelled with a fluorochrome.\n6—Fluorescence Quantification:\nAfter the HA-FA binding medium has been removed, two rinses with PBS are carried out, after which the fluorescence bound to the keratinocytes is measured at an excitation wavelength λex 485 nm and an emission wavelength λem=538 nm.\n7—Expressing the Results:\nThe results are expressed in fluorescence units (“specific fluorescence”), with the nonspecific fluorescence being deducted (see 5-).\nTo do this, the fluorescence values measured are reduced to the cellular DNA content, carried out according to the DAPI method (see III-)."}, "[2]": {"system": "CD44 receptor", "test": "Functionality of the CD44 receptor: hyaluronic acid binding by keratinocytes after 48 hours of treatment, normalized to cellular DNA (protocol II-9)", "format": "cell-based, human", "details": "0.22 mM", "procedure": "The products whose activity on the expression of the CD44 receptor it is desired to evaluate are added to the culture medium 24 hours after inoculation of the cells. To do this, the inoculation medium is removed and replaced with an identical medium containing the test substance. The incubation then continues for 48 hours. Controls are carried out in the absence of the products to be evaluated, and in the presence of the excipient which was used to dissolve them. All the factors are otherwise equal.\n9—Measurement of the functionality of the CD44 receptor.\n(§1) The values thus obtained are normalized, taking account of the amount of cellular material present in the wells. To do this, the cellular DNA content is measured by the DAPI method (see protocol below).\nIII—Quantification of the Cellular DNA with […] Dihydrochloride (DAPI)\nThe quantification of the cellular DNA may be carried out directly on the cultures after quantification of the CD44 expression.\n30 μl of methanol at −20° C. are added to each well for 1 min.\nAfter rinsing twice with PBS, a 20 μg/ml DAPI solution is added over 15 minutes at ambient temperature and in darkness.\n3—Fluorescence Quantification:\nAfter rinsing twice with PBS, the fluorescence present in the wells is read with 50 μl of PBS at λ excitation=355 nm and λemission=460 nm."}, "[3]": {"system": "CD44", "test": "Expression of the hyaluronic acid receptor (CD44) at the surface of keratinocytes, anti-CD44 antibody labelling normalized to cellular DNA (protocol II)", "format": "cell-based, human", "details": "0.22 mM", "procedure": "II—Measurement of the Expression of the Hyaluronic Acid Receptor (CD44) at the Surface of Keratinocytes\nSteps 1 and 2 are identical to steps 1 and 2 of I.\n3—Binding of the cells to 2% paraformaldehyde in PBS containing calcium and magnesium for 5 minutes at ambient temperature.\n4—Saturation of the Nonspecific Antigen-Antibody Binding Sites:\nAfter rinsing twice with PBS, the cells are incubated with PBS saturation medium with calcium and magnesium supplemented with 5% v/v of calf serum and 0.05% w/v of sodium azide, for 1 hour at ambient temperature. […]\n7—Fluorescence Quantification:\nAfter rinsing twice with the saturation medium, the fluorescence present in the wells is read with 50 μl of PBS at λ excitation=544 nm and k emission=590 nm. […]\nThe products whose activity on the expression of the CD44 receptor it is desired to evaluate are added to the culture medium 24 hours after inoculation of the cells. […] Controls are carried out in the absence of the products to be evaluated, and in the presence of the excipient which was used to dissolve them. […]\nas §1\nIII—Quantification of the Cellular DNA with […] Dihydrochloride (DAPI) […]\n3—Fluorescence Quantification: […]"}}, "note": "Like-named read-outs stand apart in the source and are kept apart here. Marks after values point to notes of the source that are not given here."}
{"molecule": "manganese chloride [MnCl2]", "values": [{"measurement": "Amount of fluorescence measured compared with calcium chloride at equivalent molarity", "setting": "[1]", "result": "significantly greater"}]}
{"molecule": "O=C([O-])[C@H](O)[C@@H](O)[C@H](O)[C@H](O)CO.[Na+]", "note": "[sodium gluconate]", "values": [{"measurement": "Fluorescence measured (FU) Mean", "setting": "[1]; sodium gluconate 10 mM with CaCl2 2.5 mM", "result": 27, "unit": "FU"}, {"measurement": "Fluorescence measured (FU) Mean", "setting": "[1]; sodium gluconate 10 mM with CaCl2 5 mM", "result": "84* FU"}, {"measurement": "Fluorescence measured (FU) Mean", "setting": "[1]; sodium gluconate 10 mM with CaCl2 10 mM", "result": "2,186* FU"}, {"measurement": "Fluorescence measured (FU) Mean", "setting": "[1]; sodium gluconate 10 mM, CaCl2 0 mM", "result": 6, "unit": "FU"}, {"measurement": "Increase of the effects of calcium on hyaluronic acid binding, factor", "setting": "[1]; relatively optimized conditions (10 mM CaCl2 / 2.5 mM sodium gluconate)", "result": "≥ 12"}]}
{"molecule": "CC(O)C(=O)[O-].[Na+]", "note": "(centres unmarked) [Sodium lactate, sodium lactate]", "values": [{"measurement": "Binding of hyaluronic acid to the surface of human keratinocytes Binding (FU)/cellular DNA (FU) Mean", "setting": "[2]; 48 hours of treatment, control 59 ± 8.5", "result": "105 ± 24"}, {"measurement": "Binding of hyaluronic acid to the surface of human keratinocytes % increase", "setting": "[2]; 48 hours, versus 0 mM control", "result": 78, "unit": "%"}, {"measurement": "Expression of CD44 at the surface of human keratinocytes % increase", "setting": "[3]; 48 hours, versus 0 mM control", "result": 32, "unit": "%"}, {"measurement": "Expression of CD44 at the surface of human keratinocytes CD44 (FU)/cellular DNA (FU) labelling Mean", "setting": "[3]; cells treated for 48 hours, control 189 ± 28", "result": "249 ± 31"}]}
{"molecule": "calcium gluconate", "values": [{"measurement": "Amount of fluorescence measured compared with calcium chloride at equivalent molarity", "setting": "[1]", "result": "significantly greater"}]}
